The target in test [1] is T1, PD-L1 protein on the surface of MC38-hPDL1 tumor cells (Homo sapiens, UniProt Q9NZQ7).
T1 construct: expressed in transfected cells; host or cells: MC38-hPDL1 (mouse colon cancer cells)
As to the kind of experiment: Induction of endocytosis of PD-L1 on the surface of tumor cells (flow cytometry). It is filed as cell-based. The conditions noted are these: 16 hours incubation; for Emax: MC38-hPDL1 cells, read-out: MC38 maximum endocytosis rate; for IC50: inducing endocytosis of PD-L1, MC38-hPDL1 cells, read-out: MC38 IC50. In outline:
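MC38-hPDL1 mouse colon cancer cells overexpressing human PD-L1 were exposed to compound dilutions for 16 h at 37 °C. Surface PD-L1 was then stained with PE anti-human CD274 for 30 min at room temperature and measured by flow cytometry. Endocytosis rate versus concentration was fitted by nonlinear regression to give IC50.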
(In general: In flow cytometry, cells or beads pass a laser one at a time.)

The target of test [2] is T2, human PD-L1 protein (Homo sapiens, UniProt Q9NZQ7).
T2 construct: purchased Acro Biosystems PD1-H5229
As to the kind of experiment: Thermal shift: melting temperature of PD-L1 protein. It is filed as binding. The conditions noted are these: for ΔTm at 10 µM: read-out: ΔTm (° C.). How it is done: Test Embodiment 4. Test of Combination of the Compounds of the Present Disclosure to Improve the Stability (Melting Temperature) of PD-L1 Protein Experimental purpose: To test the ability of compounds to enhance the stability of PD-L1 protein and increase the melting temperature of the protein. Experimental method: […] A solution containing […] HEPES, SYPRO Orange, and 150 mM NaCl was prepared as experimental buffer, and human PD-L1 protein was added at a final concentration of 2 μM. […] PCR tube was put into the PCR machine, and the melt curve function was selected to detect the melting temperature of PD-L1 protein in different treatment groups (heated from 25° C. to 95° C., 0.03° C./s). The experimental data file of the PCR instrument was imported into the thermal shift software to obtain the melting temperature (Tm) of each treatment group, and the Tm of the DMSO vehicle control group was subtracted to obtain the change value (ΔTm) of the melting temperature, as shown in the following table: […]

Setting [3] is: compound 10 μM, PD-L1 protein 2 μM, Tm minus DMSO vehicle control.

The source of these data is patent US20230105212A1, “BIPHENYL DERIVATIVE INHIBITOR, PREPARATION METHOD THEREFOR AND USE THEREOF” (SHANGHAI HANSOH BIOMEDICAL CO., LTD., priority 2020, published 2023).

By IC50 is commonly meant the midpoint of a concentration-inhibition curve. The term ΔTm denotes the shift of the melting midpoint relative to a reference.

Like-named read-outs stand apart in the source and are kept apart here.

T1 sequence (Q9NZQ7 19-290): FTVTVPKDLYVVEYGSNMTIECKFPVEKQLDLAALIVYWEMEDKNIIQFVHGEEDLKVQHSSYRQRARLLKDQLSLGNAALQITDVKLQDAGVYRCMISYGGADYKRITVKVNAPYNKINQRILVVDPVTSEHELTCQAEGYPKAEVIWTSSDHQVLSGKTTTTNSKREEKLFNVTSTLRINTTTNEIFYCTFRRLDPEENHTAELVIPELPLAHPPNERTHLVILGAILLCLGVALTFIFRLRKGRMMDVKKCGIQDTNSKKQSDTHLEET
T2 sequence (Q9NZQ7 19-238 limits assumed): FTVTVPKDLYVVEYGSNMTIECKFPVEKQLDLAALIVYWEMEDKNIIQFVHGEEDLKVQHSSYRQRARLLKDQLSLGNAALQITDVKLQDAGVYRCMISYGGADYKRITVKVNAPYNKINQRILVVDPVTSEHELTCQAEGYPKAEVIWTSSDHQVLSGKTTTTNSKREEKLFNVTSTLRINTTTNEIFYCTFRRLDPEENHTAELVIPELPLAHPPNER

`COc1nc(-c2cccc(-c3cccc(NC(=O)c4nc5c(n4C)CCN(C)C5)c3Cl)c2Cl)ccc1CN1CC2(C1)CN(C(=O)C1CC1)C2` [Embodiment 187, N-(2,2′-Dichloro-3′-(5-((6-(cyclopropylcarbonyl)-2,6-diazaspiro[3.3]heptan-2-yl)methyl)-6-methoxypyridin-2-yl)-[1,1′-biphenyl]-3-yl)-1,5-dimethyl-4,5,6,7-tetrahydro-1H-imidazo[4,5-c]pyridine-2-carboxamide]: in test [1], the Emax came out at 95% and the IC50 came out at 1.1 nM. Moreover, the thermal shift (ΔTm) at 10 µM in test [2] (setting [3]) amounted to 21.1 °C.
For the compound `COc1nc(-c2cccc(-c3cccc(NC(=O)c4nc5c(n4C)CCN(C)C5)c3Cl)c2Cl)ccc1CN1CC2(C1)CN(C(=O)C(F)(F)F)C2` [Embodiment 189, N-(2,2′-Dichloro-3′-(6-methoxy-5-((6-(2,2,2-trifluoroacetyl)-2,6-diazaspiro[3.3]heptan-2-yl)methyl)pyridin-2-yl)-[1,1′-biphenyl]-3-yl)-1,5-dimethyl-4,5,6,7-tetrahydro-1H-imidazo[4,5-c]pyridine-2-carboxamide], the Emax in test [1] amounted to 96%. The thermal shift (ΔTm) at 10 µM in test [2] (setting [3]) was found to be 19.5 °C.
With `COc1nc(-c2cccc(-c3cccc(NC(=O)c4nc5c(n4C)CCN(C)C5)c3Cl)c2Cl)ccc1CN1C2CC1CN(C(=O)C(C)C)C2` [Embodiment 210, N-(2,2′-Dichloro-3′-(5-((3-isobutyryl-3,6-diazabicyclo[3.1.1]heptan-6-yl)methyl)-6-methoxypyridin-2-yl)-[1,1′-biphenyl]-3-yl)-1,5-dimethyl-4,5,6,7-tetrahydro-1H-imidazo[4,5-c]pyridine-2-carboxamide], in test [1], the Emax was determined as 88%. Moreover, the thermal shift (ΔTm) at 10 µM in test [2] (setting [3]) was determined as 10.7 °C.
Regarding `COc1nc(-c2cccc(-c3cccc(NC(=O)c4nc5c(n4C)CCN(C)C5)c3Cl)c2Cl)ccc1CNCC1(C#N)CC1` [Embodiment 213, N-(2,2′-Dichloro-3′-(5-((((1-cyanocyclopropyl)methyl)amino)methyl)-6-methoxypyridin-2-yl)-[1,1′-biphenyl]-3-yl)-1,5-dimethyl-4,5,6,7-tetrahydro-1H-imidazo[4,5-c]pyridine-2-carboxamide], in test [1], the Emax stood at 96% and the IC50 was 4.1 nM. In addition, the ΔTm at 10 µM in test [2] (setting [3]) was determined as 14.5 °C.
As for `CCn1c(C(=O)Nc2cccc(-c3cccc(-c4ccc(CNC5COC5)c(OC)n4)c3Cl)c2Cl)nc2c1CCN(C)C2` [Embodiment 236, N-(2,2′-Dichloro-3′-(6-methoxy-5-((oxetan-3-ylamino)methyl)pyridin-2-yl)-[1,1′-biphenyl]-3-yl)-1-ethyl-5-methyl-4,5,6,7-tetrahydro-1H-imidazo[4,5-c]pyridine-2-carboxamide], in test [1], the Emax is 90%. Further, in test [2] (setting [3]), the thermal shift (ΔTm) at 10 µM is 10.6 °C.
Turning to `COc1nc(-c2cccc(-c3cccc(NC(=O)c4nc5c(n4C)CCN(C)C5)c3Cl)c2Cl)ccc1CN1CCC(C#N)CC1` [Embodiment 211, N-(2,2′-Dichloro-3′-(5-((4-cyanopiperidin-1-yl)methyl)-6-methoxypyridin-2-yl)-[1,1′-biphenyl]-3-yl)-1,5-dimethyl-4,5,6,7-tetrahydro-1H-imidazo[4,5-c]pyridine-2-carboxamide], in test [1], the Emax was 95% and the half-inhibitory concentration (IC50) is 3.1 nM. Moreover, in test [2] (setting [3]), the ΔTm at 10 µM is 14.6 °C.
As for `COc1nc(-c2cccc(-c3cccc(NC(=O)c4nc5c(n4C)CCN(C)C5)c3Cl)c2Cl)ccc1CN1CCN(C(=O)C(C)C)CC1` [Embodiment 199, N-(2,2′-Dichloro-3′-(5-((4-isobutyrylpiperazin-1-yl)methyl)-6-methoxypyridin-2-yl)-[1,1′-biphenyl]-3-yl)-1,5-dimethyl-4,5,6,7-tetrahydro-1H-imidazo[4,5-c]pyridine-2-carboxamide], the Emax in test [1] is 93%. Also, in test [2] (setting [3]), the shift in melting temperature (ΔTm) at 10 µM came to 11.4 °C.
For the compound `COc1nc(-c2cccc(-c3cccc(NC(=O)c4nc5c(n4C)CCN(C)C5)c3Cl)c2Cl)ccc1CN1CCN(C(C)=O)CC1` [Embodiment 203, N-(3′-(5-((4-Acetylpiperazin-1-yl)methyl)-6-methoxypyridin-2-yl)-2,2′-dichloro-[1,1′-biphenyl]-3-yl)-1,5-dimethyl-4,5,6,7-tetrahydro-1H-imidazo[4,5-c]pyridine-2-carboxamide], the Emax in test [1] was 95%. In addition, in test [2] (setting [3]), the “ΔTm (° C.)” value amounted to 10.5 °C and the ΔTm at 10 µM was 13.5 °C.
As for `COc1cc(C(=O)Nc2cccc(-c3cccc(NC(=O)c4nc5c(n4C)CCN(C)C5)c3Cl)c2C)ncc1CNc1ccc(C)nc1` [Embodiment 92, N-(2-Chloro-3′-(4-methoxy-5-(((6-methylpyridin-3-yl)amino)methyl)picolinamido)-2′-methyl-[1,1′-biphenyl]-3-yl)-1,5-dimethyl-4,5,6,7-tetrahydro-1H-imidazo[4,5-c]pyridine-2-carboxamide], in test [1], the Emax was determined as 83% and the IC50 is 9 nM. For the same compound, in test [2] (setting [3]), the ΔTm at 10 µM was determined as 10.5 °C.
Consider `CCC(=O)N1CCN(Cc2ccc(-c3cccc(-c4cccc(NC(=O)c5nc6c(n5C)CCN(C)C6)c4Cl)c3Cl)nc2OC)CC1` [Embodiment 201, N-(2,2′-Dichloro-3′-(6-methoxy-5-((4-propionylpiperazin-1-yl)methyl)pyridin-2-yl)-[1,1′-biphenyl]-3-yl)-1,5-dimethyl-4,5,6,7-tetrahydro-1H-imidazo[4,5-c]pyridine-2-carboxamide], for which, in test [1], the Emax worked out at 94%. Further, the ΔTm at 10 µM in test [2] (setting [3]) stood at 12.1 °C.
Regarding `COc1nc(-c2cccc(-c3cccc(NC(=O)c4nc5c(n4C)CCN(C)C5)c3Cl)c2Cl)ccc1CN1CCN(C(=O)C2CC2)CC1` [Embodiment 200, N-(2,2′-Dichloro-3′-(5-((4-(cyclopropylcarbonyl)piperazin-1-yl)methyl)-6-methoxypyridin-2-yl)-[1,1′-biphenyl]-3-yl)-1,5-dimethyl-4,5,6,7-tetrahydro-1H-imidazo[4,5-c]pyridine-2-carboxamide], in test [1], the Emax was found to be 95%. In test [2] (setting [3]), the shift in melting temperature (ΔTm) at 10 µM was found to be 12.5 °C.
As to `COc1nc(-c2cccc(-c3cccc(NC(=O)c4nc5c(n4C4CC4)CCN(C)C5)c3Cl)c2Cl)ccc1CN[C@H]1CCOC[C@@H]1O` (relative stereo) [Embodiment 244, 1-Cyclopropyl-N-(2,2′-dichloro-3′-(5-(((trans-3-hydroxytetrahydro-2H-pyran-4-yl)amino)methyl)-6-methoxypyridin-2-yl)-[1,1′-biphenyl]-3-yl)-5-methyl-4,5,6,7-tetrahydro-1H-imidazo[4,5-c]pyridine-2-carboxamide], the Emax in test [1] was 94%. Besides, the ΔTm at 10 µM in test [2] (setting [3]) came to 11.4 °C.
Taken in the same sequence, the figures for `COc1nc(-c2cccc(-c3cccc(NC(=O)c4nc5c(n4C)CCN(C)C5)c3Cl)c2Cl)ccc1CN1CC2CC(C1)N2C(C)=O` [Embodiment 206, N-(3′-(5-((6-Acetyl-3,6-diazabicyclo[3.1.1]heptan-3-yl)methyl)-6-methoxypyridin-2-yl)-2,2′-dichloro-[1,1′-biphenyl]-3-yl)-1,5-dimethyl-4,5,6,7-tetrahydro-1H-imidazo[4,5-c]pyridine-2-carboxamide] were 90% and 11.6 °C.
Regarding `COc1cc(C(=O)Nc2cccc(-c3cccc(NC(=O)c4nc5c(n4C)CCN(C)C5)c3Cl)c2C)ncc1CNc1cc(C)ncn1` [Embodiment 91, N-(2-Chloro-3′-(4-methoxy-5-(((6-methylpyrimidin-4-yl)amino)methyl)picolinamido)-2′-methyl-[1,1′-biphenyl]-3-yl)-1,5-dimethyl-4,5,6,7-tetrahydro-1H-imidazo[4,5-c]pyridine-2-carboxamide], in test [1], the Emax is 81% and the concentration for half-maximal inhibition (IC50) is 14 nM. Besides, the ΔTm at 10 µM in test [2] (setting [3]) was found to be 10.3 °C.
`COc1nc(-c2cccc(-c3cccc(NC(=O)c4nc5c(n4C)CCN(C)C5)c3Cl)c2Cl)ccc1CN[C@@H]1CCOC[C@@H]1F` [Embodiment 115, N-(2,2′-Dichloro-3′-(5-((((3R,4R)-3-fluorotetrahydro-2H-pyran-4-yl)amino)methyl)-6-methoxypyridin-2-yl)-[1,1′-biphenyl]-3-yl)-1,5-dimethyl-4,5,6,7-tetrahydro-1H-imidazo[4,5-c]pyridine-2-carboxamide]: in test [1], the Emax stood at 93% and the IC50 stood at 5.3 nM. In test [2], the ΔTm at 10 µM is 12.7 °C.
Turning to `COc1nc(-c2cccc(-c3cccc(NC(=O)c4nc5c(n4C)CCN(C)C5)c3Cl)c2Cl)ccc1CN1CC2(CCN(C(=O)C(C)C)C2)C1` [Embodiment 196, N-(2,2′-Dichloro-3′-(5-((6-isobutyryl-2,6-diazaspiro[3.4]octan-2-yl)methyl)-6-methoxypyridin-2-yl)-[1,1′-biphenyl]-3-yl)-1,5-dimethyl-4,5,6,7-tetrahydro-1H-imidazo[4,5-c]pyridine-2-carboxamide], the Emax in test [1] is 96%. In test [2] (setting [3]), the ΔTm at 10 µM came out at 12.4 °C.
